From patent publication US11896573B2, “Pharmaceutical compositions and pharmacokinetics of a gamma-hydroxybutyric acid derivative” (priority 2020, dated 2024)

Test: Single ascending dose study, plasma pharmacokinetics of Compound (1) and GHB
Assay type: in vivo, human
Settings: fasted
Procedure: The plasma concentrations of Compound (1) and GHB in plasma in healthy human subjects were measured using liquid chromatography tandem mass-spectroscopy and evaluated using PHOENIX™ WINNONLIN® version 8.1 (Pharsight Corporation, USA) and MICROSOFT® EXCEL® (Microsoft Corporation, USA).
All randomized subjects who received Compound (1), with available pharmacokinetic (PK) data and without relevant deviations interfering with the PK evaluations, were included. Subjects who received only placebo were excluded from the PK population. In addition, the PK population was used for the summaries and analyses of all PK data.
A randomized, double-blind, single-center, single ascending dose study was undertaken to evaluate the safety, tolerability, and pharmacokinetics of Compound (1) and GHB in healthy subjects.
Compound (1) was administered to randomized healthy subjects at doses from 0.1 g to 7.25 g as an aqueous solution of Compound (1) in water. The subjects fasted for at least 10 hours overnight with clear liquids allowed prior to dosing and the subjects were fasted for 4 hours after dosing.
Plasma samples were obtained at various times following oral administration and the plasma concentrations of Compound (1) and GHB were measured.

[1] = Cohort 1 (0.10 g) single oral dose
[2] = Cohort 2 (0.50 g) single oral dose
[3] = Cohort 3 (1.50 g) single oral dose
[4] = Cohort 4 (3.00 g) single oral dose
[5] = Cohort 5 (4.50 g) single oral dose
[6] = Cohort 6 (6.00 g) single oral dose
[7] = Cohort 7 (7.25 g) single oral dose

For `CC(C)[C@H](N)C(=O)OCCCC(=O)O` [Compound (1), 4-((L-valyl)oxy)butanoic acid], the “Compound (1) CL/F, Max” value [1] was 554 L/h, the “Compound (1) CL/F, Mean” value [1] was 420 L/h and the “Compound (1) CL/F, Median” value [1] was 408 L/h. For the same compound, the “Compound (1) CL/F, Min” value [1] was 316 L/h, the “Compound (1) plasma AUC0-inf, Max” value [1] was 316 ng·h/mL and the “Compound (1) plasma AUC0-inf, Min” value [1] was 180 ng·h/mL. The “Compound (1) plasma AUC0-tlast, Max” value [1] was 315 ng·h/mL, the “Compound (1) plasma AUC0-tlast, Min” value [1] was 180 ng·h/mL and the “Compound (1) plasma Cmax, Max” value [1] was 669 ng/mL. The “Compound (1) plasma Cmax, Min” value [1] was 265 ng/mL, the “Compound (1) plasma t1/2, Max” value [1] was 0.92 h and the “Compound (1) plasma t1/2, Min” value [1] was 0.48 h. The “Compound (1) CL/F, Max” value [2] was 500 L/h, the “Compound (1) CL/F, Mean” value [2] was 400 L/h and the “Compound (1) CL/F, Median” value [2] was 396 L/h. For the same compound, the “Compound (1) CL/F, Min” value [2] was 309 L/h, the “Compound (1) plasma AUC0-inf, Max” value [2] was 1620 ng·h/mL and the “Compound (1) plasma AUC0-inf, Min” value [2] was 1000 ng·h/mL. The “Compound (1) plasma AUC0-tlast, Max” value [2] was 1610 ng·h/mL, the “Compound (1) plasma AUC0-tlast, Min” value [2] was 998 ng·h/mL and the “Compound (1) plasma Cmax, Max” value [2] was 2470 ng/mL. The “Compound (1) plasma Cmax, Min” value [2] was 1160 ng/mL, the “Compound (1) plasma Tmax, Max” value [2] was 1.50 h and the “Compound (1) plasma t1/2, Max” value [2] was 1.33 h. The “Compound (1) plasma t1/2, Min” value [2] was 0.71 h, the “Compound (1) CL/F, Max” value [3] was 959 L/h and the “Compound (1) CL/F, Mean” value [3] was 673 L/h. The “Compound (1) CL/F, Median” value [3] was 553 L/h, the “Compound (1) CL/F, Min” value [3] was 468 L/h and the “Compound (1) plasma AUC0-inf, Max” value [3] was 3210 ng·h/mL. The “Compound (1) plasma AUC0-inf, Min” value [3] was 1500 ng·h/mL, the “Compound (1) plasma AUC0-tlast, Max” value [3] was 4040 ng·h/mL and the “Compound (1) plasma AUC0-tlast, Min” value [3] was 1500 ng·h/mL. The “Compound (1) plasma Cmax, Max” value [3] was 5530 ng/mL, the “Compound (1) plasma Cmax, Min” value [3] was 2100 ng/mL and the “Compound (1) plasma Tmax, Max” value [3] was 1.50 h. For the same compound, the “Compound (1) plasma t1/2, Max” value [3] was 1.11 h, the “Compound (1) plasma t1/2, Min” value [3] was 0.97 h and the “Compound (1) CL/F, Max” value [4] was 545 L/h. For the same compound, the “Compound (1) CL/F, Mean” value [4] was 413 L/h, the “Compound (1) CL/F, Median” value [4] was 408 L/h and the “Compound (1) CL/F, Min” value [4] was 318 L/h. The “Compound (1) plasma AUC0-inf, Max” value [4] was 9430 ng·h/mL, the “Compound (1) plasma AUC0-inf, Min” value [4] was 5500 ng·h/mL and the “Compound (1) plasma AUC0-tlast, Max” value [4] was 9430 ng·h/mL. The “Compound (1) plasma AUC0-tlast, Min” value [4] was 5500 ng·h/mL, the “Compound (1) plasma Cmax, Max” value [4] was 15200 ng/mL and the “Compound (1) plasma Cmax, Min” value [4] was 7440 ng/mL. For the same compound, the “Compound (1) plasma t1/2, Max” value [4] was 1.54 h, the “Compound (1) plasma t1/2, Min” value [4] was 0.78 h and the “Compound (1) CL/F, Max” value [5] was 586 L/h. For the same compound, the “Compound (1) CL/F, Mean” value [5] was 416 L/h, the “Compound (1) CL/F, Median” value [5] was 389 L/h and the “Compound (1) CL/F, Min” value [5] was 353 L/h. The “Compound (1) plasma AUC0-inf, Max” value [5] was 12700 ng·h/mL, the “Compound (1) plasma AUC0-inf, Min” value [5] was 7670 ng·h/mL and the “Compound (1) plasma AUC0-tlast, Max” value [5] was 12700 ng·h/mL. The “Compound (1) plasma AUC0-tlast, Min” value [5] was 7660 ng·h/mL, the “Compound (1) plasma Cmax, Max” value [5] was 16700 ng/mL and the “Compound (1) plasma Cmax, Min” value [5] was 6790 ng/mL. For the same compound, the “Compound (1) plasma t1/2, Max” value [5] was 1.50 h, the “Compound (1) plasma t1/2, Min” value [5] was 0.83 h and the “Compound (1) CL/F, Max” value [6] was 423 L/h. The “Compound (1) CL/F, Mean” value [6] was 340 L/h, the “Compound (1) CL/F, Median” value [6] was 334 L/h and the “Compound (1) CL/F, Min” value [6] was 232 L/h. For the same compound, the “Compound (1) plasma AUC0-inf, Max” value [6] was 25800 ng·h/mL, the “Compound (1) plasma AUC0-inf, Min” value [6] was 14200 ng·h/mL and the “Compound (1) plasma AUC0-tlast, Max” value [6] was 25800 ng·h/mL. For the same compound, the “Compound (1) plasma AUC0-tlast, Min” value [6] was 14200 ng·h/mL, the “Compound (1) plasma Cmax, Max” value [6] was 22900 ng/mL and the “Compound (1) plasma Cmax, Min” value [6] was 13200 ng/mL. The “Compound (1) plasma t1/2, Max” value [6] was 1.64 h, the “Compound (1) plasma t1/2, Min” value [6] was 0.79 h and the “Compound (1) CL/F, Max” value [7] was 433 L/h. For the same compound, the “Compound (1) CL/F, Mean” value [7] was 376 L/h.
